Experimental data: patent publication US20240139221A1, “TREATMENT OF HPV-INDUCED NEOPLASIA” (priority 2022, published 2024)

Columns and labels:
physchem = conditions: for solubility / solubility at 0.5 h / solubility at 2 h: 37 °C, thermodynamic from solid; for pH of solution, 2 hours / Solubility 2 hours: 37° C.; for Solubility 2 hours: target 10 mg/5 mL
Method: About 4 mg of Compound I Pattern 1 was added into 2 mL of buffer solution.
(§1) Solubility was tested in five media, pH 3.0 citrate buffer, pH 4.5 acetate buffer, pH 6.8 phosphate buffer, water, simulated vaginal fluid (pH 4.2) at 37° C. for 0.5 h and 2 h.
The salt amount used is equivalent to 10 mg anhydrous free base. […] The obtained clear solutions were analyzed by pH meter for pH, and solubility was determined by observation.
as §1

[1] = Hygroscopicity by DVS at 25° C.; assay type: physicochemical; conditions: for Hygroscopicity (in words): DVS 25° C.; for XRPD after DVS test: after 40-0-95-0-40% RH cycle, 25° C.
Method: Hygroscopicity was investigated by DVS at 25° C., using the following method: […]

[2] = Polymorph screening by equilibration in solvents at 25° C. (crystal modification, XRPD); assay type: physicochemical
[3] = Bulk stability (accelerated stability, one week; HPLC and XRPD); conditions: for physical and chemical stability (in words): 25° C./92% RH open, 40° C./75% RH open, 60° C. tight container, one week; for Bulk (XRPD) / Color / Purity, Bulk (HPLC): Solid state, 1 week; for Initial HPLC purity: before storage
[4] = Ex vivo permeation and penetration across porcine vaginal tissue (Franz diffusion cells, IVPT); assay type: in vitro ADME; conditions: FIG. 116
Source text: (§2) FIG. 116 is an in vitro tissue permeation test in vaginal tissue comparing Compound II to ABI-1968. […] Bars B and C show the tissue penetration of a 0.1% Compound II gel in human cervical tissue. […] This may be a contributing factor to the performance of ABI-1968 in clinical studies. […] This is described in Example 41.
Freshly harvested porcine vaginal tissue was procured from local slaughterhouse in an ice box. The vaginal tissue was cut open to expose the mucosal surface and tissue was cleaned by gentle flow of PBS pH 7.4. The porcine vaginal tissue was cut into circular portions (approximately 2 cm^2) with help of a […] punch.
The circular portion of tissue was sandwiched between two chambers of a Franz diffusion cell with an active diffusion area of 1 cm^2, and the mucosal layer was exposed to the donor chambers. The resistance across porcine vaginal tissue was measured using a wave form generator to ensure the integrity of the tissue segment used for the permeation study. Porcine vaginal tissue with resistance of ≥3 KΩ·cm^2 was used for study. The receiver chamber was filled with 8 ml of 5% solutol PBS 7.4 pH, which was stirred at 600 rpm with a 3 mm magnetic stir bar and the temperature was maintained at 37° C. with a circulating water bath.
The ˜200 mg of gel was filled into tared 1 mL syringe and gel was dispensed to donor chamber. […]

[5] = In vitro tissue permeation test in human cervical tissue; assay type: in vitro ADME; conditions: 0.1% gel, FIG. 116
Source text: as §2

[6] = pH 4.2, fassgf or other biorelevant
[7] = Simulated vaginal fluid (pH adjusted by 0.1N NaOH)
[8] = cycle of 40-0-95-0-45% relative humidity
[9] = PS7, solvent IPA/heptanes (3/10, v/v)
[10] = PS8, solvent water/ACN (2.9/97.1, v/v)
[11] = PS9, solvent IPA/MTBE (1/3, v/v)
[12] = PS10, solvent EA/toluene (1/3, v/v)

## CCOC(=O)[C@H](C)N[P@](=O)(COCCn1cnc2c(OC)nc(N)nc21)OCc1ccccc1 (single isomer, unassigned) [Compound III, monofumarate]
physchem; aqueous buffer
  solubility: > 2000 µg/mL
physchem; pH 3, aqueous buffer
  solubility: > 2000 µg/mL
physchem; [6]
  solubility: > 2000 µg/mL
physchem; pH 4.5, aqueous buffer
  solubility: > 2000 µg/mL
physchem; pH 6.8, aqueous buffer
  solubility: > 2000 µg/mL
physchem; water
  solubility: > 2000 µg/mL
physchem; [7]
  pH of solution, 2 hours: 5.37
  Solubility 2 hours: > 2000 µg/mL
physchem; Water
  pH of solution, 2 hours: 2.78
  Solubility 2 hours: > 2000 µg/mL
physchem; pH 3.0, 100 mM citrate buffer
  pH of solution, 2 hours: 2.83
  Solubility 2 hours: > 2000 µg/mL
physchem; pH 4.5, 50 mM acetate buffer
  pH of solution, 2 hours: 4.12
  Solubility 2 hours: > 2000 µg/mL
physchem; pH 6.8, 50 mM phosphate buffer
  pH of solution, 2 hours: 6.44
  Solubility 2 hours: > 2000 µg/mL
[1]
  Hygroscopicity (in words): slightly hygroscopic
  XRPD after DVS test: No form change
[1]; [8]
  XRPD pattern after humidity cycle: lose one of the peaks
  increase in retained water content versus Compound II: 40 fold
[2]; PS1, solvent IPA
  Crystal modification after 1 week equilibration at 25° C.: Compound V Pattern 2
[2]; PS2, solvent Heptanes
  Crystal modification after 1 week equilibration at 25° C.: Compound III Pattern 2
[2]; PS3, solvent Water
  Crystal modification after 1 week equilibration at 25° C.: Compound III Pattern 3
[2]; PS4, solvent ACN
  Crystal modification after 1 week equilibration at 25° C.: Compound III Pattern 4
[2]; PS5, solvent MEK
  Crystal modification after 1 week equilibration at 25° C.: Compound III Pattern 5
[2]; [9]
  Crystal modification after 1 week equilibration at 25° C.: Compound III Pattern 2
[2]; [10]
  Crystal modification after 1 week equilibration at 25° C.: Compound III Pattern 4
[2]; [11]
  Crystal modification after 1 week equilibration at 25° C.: Compound III Pattern 6
[2]; [12]
  Crystal modification after 1 week equilibration at 25° C.: Compound III Pattern 2
[3]
  physical and chemical stability (in words): good physical stability
  Initial HPLC purity: 98.8%
[3]; 25° C./92% RH, open container
  Bulk (XRPD): No form change
  Color: No change
  Purity, Bulk (HPLC): 98.7%
[3]; 40° C./75% RH, open container
  Bulk (XRPD): No form change (One
  Color: No change
  Purity, Bulk (HPLC): 97.2%
[3]; 60° C., tight container
  Bulk (XRPD): No form change (One
  Color: No change
  Purity, Bulk (HPLC): 97.3%

## CCCCCCCCCCCCCCCCCCOCCOP(=O)(O)COCCn1cnc2c(=O)[nH]c(N)nc21 [ABI-1968, reference compound]
[4]
  tissue penetration (in words): substantially smaller degree

## CCOC(=O)[C@H](C)N[P@@](=O)(COCCn1cnc2c(OC)nc(N)nc21)OCc1ccccc1.O=C(O)/C=C/C(=O)O [Compound II]
physchem; aqueous buffer
  solubility: > 2000 µg/mL
physchem; pH 3, aqueous buffer
  solubility at 0.5 h: > 2000 µg/mL
  solubility at 2 h: > 2000 µg/mL
physchem; [6]
  solubility at 0.5 h: > 2000 µg/mL
  solubility at 2 h: > 2000 µg/mL
physchem; pH 4.5, aqueous buffer
  solubility at 0.5 h: > 2000 µg/mL
  solubility at 2 h: > 2000 µg/mL
physchem; pH 6.8, aqueous buffer
  solubility at 0.5 h: > 2000 µg/mL
  solubility at 2 h: > 2000 µg/mL
physchem; water
  solubility at 0.5 h: > 2000 µg/mL
  solubility at 2 h: > 2000 µg/mL
physchem; [7]
  pH of solution, 2 hours: (5.79)
physchem; Water
  pH of solution, 2 hours: (2.87)
physchem; pH 3.0, 100 mM citrate buffer
  pH of solution, 2 hours: (2.85)
physchem; pH 4.5, 50 mM acetate buffer
  pH of solution, 2 hours: (4.2)
physchem; pH 6.8, 50 mM phosphate buffer
  pH of solution, 2 hours: (6.47)
[1]
  Hygroscopicity (in words): slightly hygroscopic
  XRPD after DVS test: No form change
[1]; [8]
  XRPD pattern after humidity cycle: does not change
[4]
  tissue penetration (in words): high tissue penetration
[5]
  tissue penetration (in words): high tissue penetration
[2]; PS1, solvent IPA
  Crystal modification after 1 week equilibration at 25° C.: Compound II Pattern 1
[2]; PS2, solvent Heptanes
  Crystal modification after 1 week equilibration at 25° C.: Compound II Pattern 1
[2]; PS3, solvent Water
  Crystal modification after 1 week equilibration at 25° C.: Compound II Pattern 1
[2]; PS4, solvent ACN
  Crystal modification after 1 week equilibration at 25° C.: Compound II Pattern 2
[2]; PS5, solvent MEK
  Crystal modification after 1 week equilibration at 25° C.: Compound II Pattern 3
[2]; PS6, solvent Acetone
  Crystal modification after 1 week equilibration at 25° C.: Compound II Pattern 1
[2]; [9]
  Crystal modification after 1 week equilibration at 25° C.: Compound II Pattern 1
[2]; [10]
  Crystal modification after 1 week equilibration at 25° C.: Compound II Pattern 2
[2]; [11]
  Crystal modification after 1 week equilibration at 25° C.: Compound II Pattern 1
[2]; [12]
  Crystal modification after 1 week equilibration at 25° C.: Compound II Pattern 1
[3]
  physical and chemical stability (in words): good physical and chemical stability
  Initial HPLC purity: 99.7%
[3]; 25° C./92% RH, open container
  Bulk (XRPD): No form change
  Color: No change
  Purity, Bulk (HPLC): 99.5%
[3]; 40° C./75% RH, open container
  Bulk (XRPD): No form change
  Color: No change
  Purity, Bulk (HPLC): 99.4%
[3]; 60° C., tight container
  Bulk (XRPD): No form change
  Color: No change
  Purity, Bulk (HPLC): 99.7%
